Like-named read-outs stand apart in the source and are kept apart here.
Assays:
Format in all cases: in vivo
[1] = test system: Phytophthora infestans (Tomatoes); conditions: one or two days before inoculation
[2] = test system: Erysiphe graminis tritici (Wheat); assay: Foliar fungal disease test on plants: Erysiphe graminis tritici (Wheat); conditions: plants inoculated 24 hours before treatment
[3] = test system: Venturia inaequalis (Apples); assay: Foliar fungal disease test on plants: Venturia inaequalis (Apples); conditions: one or two days before inoculation
[4] = test system: Puccinia recondita (Wheat); assay: Foliar fungal disease test on plants: Puccinia recondita (Wheat); conditions: plants inoculated with Puccinia recondita 48 hours before treatment
[5] = test system: Plasmopara viticola (Vines); assay: Foliar fungal disease test on plants: Plasmopara viticola (Vines); conditions: one or two days before inoculation
[6] = test system: Pyricularia oryzae (Rice); conditions: one or two days before inoculation
[7] = test system: Thanatephorus cucumeries (Rice); assay: Foliar fungal disease test on plants: Thanatephorus cucumeries (Rice); conditions: one or two days before inoculation
Septoria nodorum (Wheat) = assay: Foliar fungal disease test on plants: Septoria nodorum (Wheat); conditions: one or two days before inoculation
[8] = 100 ppm a.i. foliar spray or root drench (approx. 40 ppm in dry soil)
[9] = 100 ppm a.i. foliar spray or root drench

Compound | POCO (Percentage of Control) disease level, Phytophthora infestans (Tomatoes) ([1]; 10 ppm foliar spray only) | POCO (Percentage of Control) disease level, Erysiphe graminis tritici (Wheat) ([2]; 10 ppm foliar spray only) | POCO (Percentage of Control) disease level, Venturia inaequalis (Apples) ([3]; 10 ppm foliar spray only) | POCO (Percentage of Control) disease level, Puccinia recondita (Wheat) ([4]; 10 ppm foliar spray only) | POCO (Percentage of Control) disease level, Plasmopara viticola (Vines) ([5]; 10 ppm foliar spray only) | POCO (Percentage of Control) disease level, Pyricularia oryzae (Rice) ([6]; 10 ppm foliar spray only) | POCO (Percentage of Control) disease level, Thanatephorus cucumeries (Rice) ([7]; 10 ppm foliar spray only) | POCO (Percentage of Control) disease level, Septoria nodorum (Wheat) (Septoria nodorum (Wheat); 10 ppm foliar spray only) | POCO (Percentage of Control) disease level, Phytophthora infestans (Tomatoes) [1, 8] | POCO (Percentage of Control) disease level, Erysiphe graminis tritici (Wheat) [2, 8] | POCO (Percentage of Control) disease level, Venturia inaequalis (Apples) [3, 8] | POCO (Percentage of Control) disease level, Puccinia recondita (Wheat) [4, 9] | POCO (Percentage of Control) disease level, Plasmopara viticola (Vines) [5, 8] | POCO (Percentage of Control) disease level, Pyricularia oryzae (Rice) [6, 8] | POCO (Percentage of Control) disease level, Thanatephorus cucumeries (Rice) [7, 8] | POCO (Percentage of Control) disease level, Septoria nodorum (Wheat) (Septoria nodorum (Wheat); [8])
COC=C(C(=O)OC)c1ccccc1COC(=O)N(C)c1ccccc1SC [21 (2)] | 90 (90 and 94 = 60.1-100% disease present) | 90 (90 and 94 = 60.1-100% disease present) | 60 (60 = 30.1-60% disease present) | 90+ (90 and 94 = 60.1-100% disease present) | 0 (0 = 0% disease present) | 30 (30 = 20.1-30% disease present) | 90 (90 and 94 = 60.1-100% disease present) | 60 (60 = 30.1-60% disease present) | – | – | – | – | – | – | – | –
COC=C(C(=O)OC)c1ccccc1COC(=O)Nc1c(F)cccc1F [23 (1)] | – | – | – | – | – | – | – | – | 90 (90 and 94 = 60.1-100% disease present) | 0 (0 = 0% disease present) | 0 (0 = 0% disease present) | 30+ (30 = 20.1-30% disease present) | 0 (0 = 0% disease present) | 30 (30 = 20.1-30% disease present) | 0 (0 = 0% disease present) | 30 (30 = 20.1-30% disease present)
COC=C(C(=O)OC)c1ccccc1COC(=O)N(C)c1c(F)cccc1F [23 (2)] | – | – | – | – | – | – | – | – | 0 (0 = 0% disease present) | 0 (0 = 0% disease present) | 0 (0 = 0% disease present) | 0+ (0 = 0% disease present) | 0 (0 = 0% disease present) | 0 (0 = 0% disease present) | 0 (0 = 0% disease present) | 0 (0 = 0% disease present)
CCN(C(=O)OCc1ccccc1C(=COC)C(=O)OC)c1c(F)cccc1F [23 (3)] | – | – | – | – | – | – | – | – | 5 (5 = 3.1-5% disease present) | 0 (0 = 0% disease present) | 0 (0 = 0% disease present) | 0+ (0 = 0% disease present) | 0 (0 = 0% disease present) | 1 (1 = 0.1-1% disease present) | 0 (0 = 0% disease present) | 5 (5 = 3.1-5% disease present)
C=CCN(C(=O)OCc1ccccc1C(=COC)C(=O)OC)c1c(F)cccc1F [23 (101)] | – | – | – | – | – | – | – | – | 90 (90 and 94 = 60.1-100% disease present) | 0 (0 = 0% disease present) | 0 (0 = 0% disease present) | 0+ (0 = 0% disease present) | 0 (0 = 0% disease present) | 0 (0 = 0% disease present) | 0 (0 = 0% disease present) | 10 (10 = 5.1-10% disease present)
CCN(C(=O)OCc1ccccc1C(=COC)C(=O)OC)c1ccc(F)cc1F [24 (3)] | – | – | – | – | – | – | – | – | 60 (60 = 30.1-60% disease present) | 0 (0 = 0% disease present) | 0 (0 = 0% disease present) | 0+ (0 = 0% disease present) | 0 (0 = 0% disease present) | 10 (10 = 5.1-10% disease present) | 0 (0 = 0% disease present) | 0 (0 = 0% disease present)
COC=C(C(=O)OC)c1ccccc1OC(=O)Nc1ccc(F)cc1F [24 (17)] | – | – | – | – | – | – | – | – | 0 (0 = 0% disease present) | 0 (0 = 0% disease present) | 0 (0 = 0% disease present) | 0+ (0 = 0% disease present) | 0 (0 = 0% disease present) | 0 (0 = 0% disease present) | 60 (60 = 30.1-60% disease present) | 0 (0 = 0% disease present)
COC=C(C(=O)OC)c1ccccc1OC(=O)N(C)c1ccc(F)cc1F [24 (18)] | 90 (90 and 94 = 60.1-100% disease present) | 60 (60 = 30.1-60% disease present) | 90 (90 and 94 = 60.1-100% disease present) | 90+ (90 and 94 = 60.1-100% disease present) | 90 (90 and 94 = 60.1-100% disease present) | 90 (90 and 94 = 60.1-100% disease present) | 90 (90 and 94 = 60.1-100% disease present) | 90 (90 and 94 = 60.1-100% disease present) | – | – | – | – | – | – | – | –
COC=C(C(=O)OC)c1ccccc1COC(=O)Nc1cc(F)ccc1F [27 (1)] | 90 (90 and 94 = 60.1-100% disease present) | 90 (90 and 94 = 60.1-100% disease present) | 90 (90 and 94 = 60.1-100% disease present) | 90+ (90 and 94 = 60.1-100% disease present) | 90 (90 and 94 = 60.1-100% disease present) | 30 (30 = 20.1-30% disease present) | 90 (90 and 94 = 60.1-100% disease present) | 90 (90 and 94 = 60.1-100% disease present) | – | – | – | – | – | – | – | –
CCN(C(=O)OCc1ccccc1C(=COC)C(=O)OC)c1cc(F)ccc1F [27 (3)] | – | – | – | – | – | – | – | – | 20 (20 and 24 = 10.1-20% disease present) | 0 (0 = 0% disease present) | 0 (0 = 0% disease present) | 0+ (0 = 0% disease present) | 0 (0 = 0% disease present) | 0 (0 = 0% disease present) | 0 (0 = 0% disease present) | 30 (30 = 20.1-30% disease present)
COC=C(C(=O)OC)c1ccccc1COC(=O)Nc1ccc(F)c(F)c1 [28 (1)] | 90 (90 and 94 = 60.1-100% disease present) | 90 (90 and 94 = 60.1-100% disease present) | 60 (60 = 30.1-60% disease present) | 5+ (5 = 3.1-5% disease present) | 30 (30 = 20.1-30% disease present) | 0 (0 = 0% disease present) | 90 (90 and 94 = 60.1-100% disease present) | 30 (30 = 20.1-30% disease present) | – | – | – | – | – | – | – | –
COC=C(C(=O)OC)c1ccccc1COC(=O)N(C)c1ccc(F)c(F)c1 [28 (2)] | – | – | – | – | – | – | – | – | 10 (10 = 5.1-10% disease present) | 0 (0 = 0% disease present) | 0 (0 = 0% disease present) | 0+ (0 = 0% disease present) | 0 (0 = 0% disease present) | 0 (0 = 0% disease present) | 0 (0 = 0% disease present) | 0 (0 = 0% disease present)
CCN(C(=O)OCc1ccccc1C(=COC)C(=O)OC)c1ccc(F)c(F)c1 [28 (3)] | – | – | – | – | – | – | – | – | 20 (20 and 24 = 10.1-20% disease present) | 0 (0 = 0% disease present) | 0 (0 = 0% disease present) | 0+ (0 = 0% disease present) | 0 (0 = 0% disease present) | 1 (1 = 0.1-1% disease present) | 0 (0 = 0% disease present) | 0 (0 = 0% disease present)

Source: patent US6465457B1 (priority 1991, dated 2002)
